Data as given in patent US9315522B2, “Antibacterial compounds” (JANSSEN SCIENCES IRELAND UC, priority 2012, dated 2016).
In brackets after ≈: the same amount, converted by molar mass.

Biological target: T1, S. aureus ATCC 29213 FabI (Staphylococcus aureus, UniProt Q6GI75)
T1 sequence (Q6GI75 1-256): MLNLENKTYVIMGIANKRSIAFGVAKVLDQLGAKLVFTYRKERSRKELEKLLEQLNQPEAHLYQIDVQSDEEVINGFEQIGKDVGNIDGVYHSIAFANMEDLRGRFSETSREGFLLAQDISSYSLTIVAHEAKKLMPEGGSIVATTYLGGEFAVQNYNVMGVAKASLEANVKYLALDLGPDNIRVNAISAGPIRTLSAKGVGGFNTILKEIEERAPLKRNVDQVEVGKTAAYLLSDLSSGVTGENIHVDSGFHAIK
Test: Staphylococcus aureus FabI enzyme inhibition assay
Format: biochemical
Settings: read-out: FabI (300.235) IC50 (converted)
Procedure: Y.1 FabI Enzyme Inhibition: Staphylococcus aureus FabI Enzyme Inhibition Assay
FabI enzyme inhibition assays were carried out in half-area, 384-well microtitre plates. Compounds were evaluated in 40-μl assay mixtures containing 100 mM NaADA, pH 6.5 (ADA=N-[2-acetamido]-2iminodiacetic acid), 250 μM crotonoyl-CoA, 625 μM NADH and 50 μg/ml S. aureus ATCC 29213 FabI. Inhibitors were typically varied over the range of 50 to 0.39 μM. The reaction mixtures were incubated for 30 minutes at room temperature and the reaction was stopped by adding 200 mM Tris buffer (pH 9.0) to create a pH-shift. The consumption of NADH was monitored by measuring the change in absorbance at […]. By comparing sample readings to those of negative (absence of compound) and positive (absence of enzyme) controls, the percent inhibition of enzymatic activity of the compounds was determined A best-fit curve is fitted by a minimum of squares method. From this an IC50-value (expressed in μg/ml), resulting in 50% inhibition of enzymatic activity, was obtained.

In order of rising IC50:
1. O=C1CNCc2cc(/C=C/C(=O)N3CC4C=C(c5ccsc5)CC4C3)cnc2N1 (centres unmarked) [compound 40]  0.959 µM
2. O=C(Nc1ncc(/C=C/C(=O)N2CC3C=C(c4ccccc4)CC3C2)cc1CN1CCOCC1)c1cccnc1 (centres unmarked) [compound 34]  2.95 µM
3. O=C(Nc1ccc(/C=C/C(=O)N2CC3C=C(c4ccccc4)CC3C2)cn1)c1ccccn1 (centres unmarked) [compound 24]  3.46 µM
4. O=C(Nc1ccc(/C=C/C(=O)N2CC3C=C(c4ccccc4)CC3C2)cn1)c1cc(F)c(Cl)nc1Cl (centres unmarked) [compound 29]  9.32 µM
5. Cc1cc(NC(=O)c2cccnc2)ncc1/C=C/C(=O)N1CC2C=C(c3ccccc3)CC2C1 (centres unmarked) [compound 26]  10.2 µM
6. Cc1nc(NC(=O)c2cccnc2)ccc1/C=C/C(=O)N1CC2C=C(c3ccccc3)CC2C1 (centres unmarked) [compound 25]  14.4 µM
7. COc1ccc(C(=O)Nc2ccc(/C=C/C(=O)N3CC4C=C(c5ccccc5)CC4C3)cn2)c(OC)n1 (centres unmarked) [compound 28]  14.8 µM
8. N#Cc1cc(NC(=O)c2cccnc2)ncc1/C=C/C(=O)N1CC2C=C(c3ccccc3)CC2C1 (centres unmarked) [compound 27]  20.9 µM

Tested on: Staphylococcus aureus ATCC 29213
Test: Antibacterial susceptibility testing, IC90 determination (STA)
Format: cell-based
Settings: Staphylococcus aureus, ATCC29213, Staphylococcus aureus ATCC 29213, broth microdilution, resazurin; read-out: STA (361.159) IC90
Procedure: (§1) The following bacteria were used: Staphylococcus aureus ATCC 29213, methicillin-resistant Staphylococcus aureus (MRSA) ATCC 700788 and Escherichia coli ATCC 35218. The bacteria used in this study were grown overnight in flasks containing 100 ml Mueller-Hinton broth (Difco cat. nr. 0757-17) in sterile de-ionized water, with shaking, at 37° C. Stocks were store at −70° C. until use.
(§2) Bacteria were incubated on a tryptic soy agar plate containing 5% sheep blood (Becton Dickinson cat. nr. 254053) for 18-24 hours at 35° C. in aerobic conditions (first passage). For the second passage, fresh Mueller-Hinton broth is inoculated with 5-10 colonies and grown overnight at 35° C. until turbidity (reaching log-phase) in aerobic conditions is reached. The bacterial suspension is then adjusted to 0.5 McFarland density and further diluted 1:100 in Mueller Hinton broth medium. This is used as inoculum.
The result(s) are depicted the table below (for STA ATCC 29213).
(§3) MIC assays were performed by the broth microdilution method in a 96-well format (flat-bottom microtitre plates) with a final volume of 0.1 ml Mueller Hinton broth containing two-fold serial dilutions of compounds and inoculated with 5×10^5 CFU/ml of bacteria (standard inoculum size according to CLSI guidelines). Inhibitors are typically varied over the range of 63 to 0.49 μM. The final DMSO concentration in the assay was 1.25% (maximum tolerable DMSO concentration=6%). In the assays where the effect of human serum on the activity of the compounds against S. aureus was tested, human serum was added at a final concentration of 10%. The plates were incubated at 35° C. for 16-20 hours. At the end of incubation the bacterial growth was quantified fluorometrically. For this, resazurin was added to all wells and the plates were re-incubated. The incubation time is dependent on the type of bacteria. A change in color from blue to pink indicated the growth of bacteria. The fluorescence was read in computer-controlled fluorometer (Fluoroskan Ascent FL, Labsystems) at an excitation wavelength 540 nm and an emission wavelength of 590 nm. The % growth inhibition achieved by the compounds was calculated according to standard methods. The IC90 (expressed in μg/ml) was defined as the 90% inhibitory concentration for bacterial growth. A panel of reference compounds were simultaneously tested for QC approval.

O=C(Nc1ccc(/C=C/C(=O)N2CC3C=C(c4ccccc4)CC3C2)cn1)c1ccccn1 (centres unmarked) [compound 24] and O=C(Nc1ccc(/C=C/C(=O)N2CC3C=C(c4ccccc4)CC3C2)cn1)c1cc(F)c(Cl)nc1Cl (centres unmarked) [compound 29] cannot be ordered by IC90: greater than 27.5 mg/L for the first, greater than 33 mg/L for the second.

Cc1nc(NC(=O)c2cccnc2)ccc1/C=C/C(=O)N1CC2C=C(c3ccccc3)CC2C1 (centres unmarked) [compound 25] and Cc1cc(NC(=O)c2cccnc2)ncc1/C=C/C(=O)N1CC2C=C(c3ccccc3)CC2C1 (centres unmarked) [compound 26] cannot be ordered by IC90: greater than 28.4 mg/L for the first, greater than 28.4 mg/L for the second.

N#Cc1cc(NC(=O)c2cccnc2)ncc1/C=C/C(=O)N1CC2C=C(c3ccccc3)CC2C1 (centres unmarked) [compound 27] and O=C(Nc1ncc(/C=C/C(=O)N2CC3C=C(c4ccccc4)CC3C2)cc1CN1CCOCC1)c1cccnc1 (centres unmarked) [compound 34] cannot be ordered by IC90: greater than 29.1 mg/L for the first, greater than 33.8 mg/L for the second.

First: COc1ccc(C(=O)Nc2ccc(/C=C/C(=O)N3CC4C=C(c5ccccc5)CC4C3)cn2)c(OC)n1 (centres unmarked) [compound 28]
Second: O=C1CNCc2cc(/C=C/C(=O)N3CC4C=C(c5ccsc5)CC4C3)cnc2N1 (centres unmarked) [compound 40]
The IC90 of the first is higher: greater than 31.3 mg/L for the first, less than 0.19 mg/L for the second.

Tested on: S. aureus
Test: Antibacterial susceptibility testing, IC90 determination with 10% human serum (STA + 10% HS)
Format: cell-based, Staphylococcus aureus
Settings: Staphylococcus aureus, human serum at final concentration of 10%, read-out: STA + 10% HS (361.169) IC90
Procedure: as §1, §2, §3
The results are depicted in the table(s) below (STA+10% HS).

O=C(Nc1ccc(/C=C/C(=O)N2CC3C=C(c4ccccc4)CC3C2)cn1)c1ccccn1 (centres unmarked) [compound 24] and O=C(Nc1ccc(/C=C/C(=O)N2CC3C=C(c4ccccc4)CC3C2)cn1)c1cc(F)c(Cl)nc1Cl (centres unmarked) [compound 29] cannot be ordered by IC90: greater than 27.5 mg/L for the first, greater than 33 mg/L for the second.

Cc1nc(NC(=O)c2cccnc2)ccc1/C=C/C(=O)N1CC2C=C(c3ccccc3)CC2C1 (centres unmarked) [compound 25] and Cc1cc(NC(=O)c2cccnc2)ncc1/C=C/C(=O)N1CC2C=C(c3ccccc3)CC2C1 (centres unmarked) [compound 26] cannot be ordered by IC90: greater than 28.4 mg/L for the first, greater than 28.4 mg/L for the second.

N#Cc1cc(NC(=O)c2cccnc2)ncc1/C=C/C(=O)N1CC2C=C(c3ccccc3)CC2C1 (centres unmarked) [compound 27] and O=C(Nc1ncc(/C=C/C(=O)N2CC3C=C(c4ccccc4)CC3C2)cc1CN1CCOCC1)c1cccnc1 (centres unmarked) [compound 34] cannot be ordered by IC90: greater than 29.1 mg/L for the first, greater than 33.8 mg/L for the second.

First: COc1ccc(C(=O)Nc2ccc(/C=C/C(=O)N3CC4C=C(c5ccccc5)CC4C3)cn2)c(OC)n1 (centres unmarked) [compound 28]
Second: O=C1CNCc2cc(/C=C/C(=O)N3CC4C=C(c5ccsc5)CC4C3)cnc2N1 (centres unmarked) [compound 40]
The IC90 of the first is higher: greater than 31.3 mg/L for the first, less than 0.19 mg/L for the second.

Tested on: not listed separately
Test: Cytotoxicity MTT assay (HELAM)
Format: cell-based, Human
Settings: human, HelaM cells, read-out: HELAM (222.125) CC50
Procedure: Cytotoxicity of the compounds was evaluated using the MTT assay. Human HelaM cells grown in 96-well plates were exposed to serial dilutions of the tested compounds (final volume of 0.2 ml) and incubated for 72 hours at 37° C. and 5% CO2. Inhibitors are typically varied over the range of 25 to 0.8 μM. The final DMSO concentration in the assay is 0.5%. MTT (3-(4,5-Dimethylthiazol-2-yl)-2,5-diphenyltetrazolium bromide, a tetrazole) was added and reduced to purple formazan only in living cells. Solubilization of the formazan crystals was achieved by adding 100 μl 2-propanol. Cell viability was determined by measuring the absorbance of the reduced formazan, giving a purple color, at 540 nm and 690 nm. The absorbance measured at 690 nm was automatically subtracted from the absorbance at 540 nm, to eliminate the effects of non-specific absorption. The percent cytotoxicity achieved by the compounds was calculated according to standard methods. Cytotoxicity is reported as CC50, the concentration that causes a 50% reduction in cell viability.
The results are depicted in the table(s) below (HELAM).

First: O=C(Nc1ccc(/C=C/C(=O)N2CC3C=C(c4ccccc4)CC3C2)cn1)c1ccccn1 (centres unmarked) [compound 24]
Second: O=C(Nc1ccc(/C=C/C(=O)N2CC3C=C(c4ccccc4)CC3C2)cn1)c1cc(F)c(Cl)nc1Cl (centres unmarked) [compound 29]
The CC50 at 72 h of the first is 3.3-fold higher: 7.76 mg/L (≈ 17.8 µM) for the first, 2.34 mg/L (≈ 4.47 µM) for the second.

Cc1nc(NC(=O)c2cccnc2)ccc1/C=C/C(=O)N1CC2C=C(c3ccccc3)CC2C1 (centres unmarked) [compound 25] and Cc1cc(NC(=O)c2cccnc2)ncc1/C=C/C(=O)N1CC2C=C(c3ccccc3)CC2C1 (centres unmarked) [compound 26] cannot be ordered by CC50 at 72 h: greater than 11.3 mg/L for the first, greater than 11.3 mg/L for the second.

N#Cc1cc(NC(=O)c2cccnc2)ncc1/C=C/C(=O)N1CC2C=C(c3ccccc3)CC2C1 (centres unmarked) [compound 27] and O=C(Nc1ncc(/C=C/C(=O)N2CC3C=C(c4ccccc4)CC3C2)cc1CN1CCOCC1)c1cccnc1 (centres unmarked) [compound 34] cannot be ordered by CC50 at 72 h: greater than 11.6 mg/L for the first, 12.6 mg/L (≈ 23.4 µM) for the second.

First: COc1ccc(C(=O)Nc2ccc(/C=C/C(=O)N3CC4C=C(c5ccccc5)CC4C3)cn2)c(OC)n1 (centres unmarked) [compound 28]
Second: O=C1CNCc2cc(/C=C/C(=O)N3CC4C=C(c5ccsc5)CC4C3)cnc2N1 (centres unmarked) [compound 40]
The CC50 at 72 h of the first is lower: 2.99 mg/L (≈ 6.02 µM) for the first, greater than 10.2 mg/L for the second.
